{"source": "patent EP4800018A1", "about": "“PAN-KRAS INHIBITOR AND USE THEREOF IN MEDICINES” (Betta Pharmaceuticals Co., Ltd., priority 2023, dated 2025)", "target": "T1, KRAS G12D-cRAF (Homo sapiens, UniProt P01116, G12D)", "T1 construct": "expressed in transfected cells", "T1 sequence (P01116 1-188 isoform P01116-2 G12D)": "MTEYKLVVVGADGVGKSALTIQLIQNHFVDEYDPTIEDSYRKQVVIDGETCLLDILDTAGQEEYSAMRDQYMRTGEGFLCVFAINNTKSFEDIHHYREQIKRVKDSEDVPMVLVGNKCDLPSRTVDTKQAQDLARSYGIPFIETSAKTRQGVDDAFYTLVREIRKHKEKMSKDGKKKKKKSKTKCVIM", "test": "Cellular KRAS G12D-cRAF Binding Inhibition Assay (NanoBRET, AD293 stable cells)", "format": "cell-based", "details": "3 h incubation, read-out: NanoBRET KRAS G12D", "outline": "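AD293 cells stably expressing KRAS G12D-NanoLuc and cRAF RBD-HaloTag were seeded at 1×10^4 cells/well with NanoBRET 618 ligand overnight. BRET signal was converted to % inhibition of binding relative to max and blank wells, and IC50 came from curve fitting.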"}
{"smiles": "CC1OCCCn2c(c3c4cc(ccc42)-c2csc(n2)CC(NC(=O)C2C(C)C2C)C(=O)N2NC(C(=O)OCC(C)(C)C3)C3CC2C3)-c2cc(N3CCN(C)CC3)cnc21", "note": "[Example 186, (1r,2R,3S)-2,3-dimethyl-N-((1^5S,6^4S,4S,Z)-1^5,10,10-trimethyl-1^2-(4-methylpiperazin-1-yl)-5,7-dioxo-1^8,1^9-dihydro-1^5H,1^7H-8-oxa-6^2,6^3-diaza-1(13,15)-pyrido[3',2':7,8][1,5]oxazonino[5,6-a]indola-2(4,2)-thiazola-6(2,4)-bicyclo[3.1.1]heptanacycloundecaphane-4-yl)cyclopropane-1-carbox amide]", "values": [{"measurement": "IC50", "result": 0.8, "unit": "nM"}]}
